Reference: PubChem BioAssay (NCI)
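Here, GI50 denotes the concentration required for 50% inhibition of growth. TGI is the concentration that stops growth completely.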

Assays:
Assay in all cases: inhibition of tumour cell growth, NCI panel, 384-well format
HCT-15 colon = tested on: HCT-15 colon
UO-31 renal = tested on: UO-31 renal
A498 renal = tested on: A498 renal
KM12 colon = tested on: KM12 colon
MCF7 breast = tested on: MCF7 breast
NCI-H460 NSCLC = tested on: NCI-H460 NSCLC
LOX IMVI melanoma = tested on: LOX IMVI melanoma
MDA-MB-468 breast = tested on: MDA-MB-468 breast
NCI-H522 lung = tested on: NCI-H522 lung
SNB-19 CNS = tested on: SNB-19 CNS
SK-MEL-28 melanoma = tested on: SK-MEL-28 melanoma
MDA-MB-231 breast = tested on: MDA-MB-231 breast
PC-3 prostate = tested on: PC-3 prostate

## COC1(C(=O)N2Cc3nc(Cl)nc(N[C@H](C)c4cc(N)cc(C(F)(F)F)c4)c3C2)CCOCC1
HCT-15 colon
  GI50: 18.6 µM
  TGI: 38.9 µM
UO-31 renal
  GI50: 15.2 µM
  TGI: 29.2 µM
A498 renal
  GI50: 14.1 µM
  TGI: 35.3 µM
KM12 colon
  GI50: 3.55 µM
  TGI: 22 µM
MCF7 breast
  GI50: 13.4 µM
  TGI: 30 µM
NCI-H460 NSCLC
  GI50: 16.4 µM
  TGI: 31 µM
LOX IMVI melanoma
  GI50: 18.7 µM
  TGI: 32.8 µM
MDA-MB-468 breast
  GI50: 8.68 µM
  TGI: 24.8 µM
NCI-H522 lung
  GI50: 12.5 µM
  TGI: 34.4 µM
SNB-19 CNS
  GI50: 19.3 µM
  TGI: > 100 µM
SK-MEL-28 melanoma
  GI50: 18.5 µM
  TGI: 34.9 µM
MDA-MB-231 breast
  GI50: 22.4 µM
  TGI: 55.3 µM
PC-3 prostate
  GI50: 16.3 µM
  TGI: 31.5 µM
